This experiment deals with 565232-114-T-J1-PDC complex spheroid viability. The experiment in a line: Anticancer human tumor 565232-114-T-J1-PDC patient-derived bladder carcinoma cell line growth inhibition [CLK]. Conditions: for viability, T/C: stronger effect = lower value. An excerpt: A high-throughput screen of multi-cell type tumor spheroids was designed to identify active combinations of […] and targeted small molecules. Complex spheroids include a stromal component modeled by human endothelial cells (HUVEC) and fibroblasts modeled by human mesenchymal stem cells (MSCs). The concentration ranges selected for each drug and investigational agent were based upon clinically achievable concentrations if the clinical Cmax of the agent was known.
Compounds. The drugs and investigational agents: cirtuvivint (SM08502; NSC835563), CC-671 (NSC850746), vemurafenib (NSC761431), tapotoclax (NSC804041), sotorasib (NSC818433), adagrasib (NSC831453), MRTX-1133 (NSC836407), BAY2416964 (NSC825713), copanlisib (NSC816437), inavolisib (NSC800729), abemaciclib (NSC768073), osimertinib (NSC779217), entinostat (NSC756642), eltanexor (KPT-8602, NSC794443), venetoclax (NSC766270), ceralasertib (NSC777638), bortezomib (NSC756655), olaparib (NSC753686), talazoparib (NSC767125), alisertib (NSC759677), peposertib (NSC802822), gemcitabine (NSC613327), 5-fluorouracil (NSC19893), SN-38 (NSC673596), oxaliplatin (NSC266046), paclitaxel (NSC125973), and doxorubicin (NSC123127), were obtained from the National Cancer Institute (NCI) Developmental Therapeutics Program Chemical Repository. The FDA-approved anticancer drug set is available from the Developmental Therapeutics Program at https://dtp.cancer.gov/organization/dscb/obtaining/available plates.htm. […] The stock solutions were prepared in dimethyl sulfoxide (DMSO, Sigma-Aldrich, St. Louis, MO, cat. D2650), except for the platinum complexes which were prepared in saline (Quality Biological, Gaithersburg, MD, cat. 114-055-101), at 800-fold the tested concentration and stored at -70 degrees C prior to their use. All drugs and investigational agents were tested over a range starting from a high concentration at or near the clinical Cmax and decreasing in half-log increments. If the clinical Cmax for an agent had not been determined, the highest concentration tested was 10 microM.
Cell Culture. All cells were maintained in an incubator at 37 degrees C and 5% CO2 with 95% humidity. The PDC lines were cultured according to standard operating procedures established by the NCI PDMR. Briefly, all PDCs were thawed and cultured in Matrigel-coated flasks prepared with a working solution of 1X Ham's F-12 nutrient mix, without supplementation (Invitrogen, Waltham, MA, cat. 11765054), 100 U/mL penicillin-streptomycin (Invitrogen, cat. 15140122), and 2.5% Matrigel (Corning Inc., Corning, NY, cat. 354248) for the first three passages. The 947758-054-R-J2-PDC line was cultured in 6B/Colon 1A media, which includes advanced DMEM/F-12 (Thermo Fisher Scientific, cat. 12634028), 10 mM HEPES (Thermo Fisher Scientific, cat. 15630080), 1X GlutaMAX supplement (Thermo Fisher Scientific, cat. 35050061), 0.1 mg/mL primocin (InvivoGen, cat. ant-pm-2), 10% defined fetal bovine serum, heat inactivated (HyClone Laboratories Inc., cat. SH30070.03HI), 1.25 mM N-Acetyl-L-cysteine (Sigma-Aldrich, cat. A9165), 10 mM nicotinamide (Sigma-Aldrich, cat. N0636), 1X B-27 supplement (Thermo Fisher Scientific, cat. 17504044), 1X N-2 supplement (Thermo Fisher Scientific, cat. 17502048), and 10 microM Y-27632 dihydrochloride (Tocris Bioscience, cat. 1254). The 876862-298-R-J1-PDC was cultured in 6E media, which includes all 6B/Colon 1A media components plus 50% L-WRN conditioned media (ATCC, cat. CRL-3276), 50 ng/mL recombinant human EGF recombinant protein (hEGF; Thermo Fisher Scientific, cat. PHG0311), 10 ng/mL recombinant human fibroblast growth factor 10 (hGFG-10; PeproTech, cat. 100-26), 1 ng/mL recombinant human fibroblast growth factor 2 (hFGF-2; PeproTech, cat. 100-18B), and 1 µM prostaglandin E2 (PGE2; Tocris, cat. 2296). The 227483-062-R1-J1-PDC line was cultured in Panc media, containing all 6E components except hFGF-2, with the addition of 500 nM SB-431542 (Selleckchem, cat. S1067) and 10 nM gastrin (Tocris, cat. 3006). […]

pIC50: −log10 of the molar value. “And” between values parts separate entries of the source, which are not always exact repeats. Identical values can stand only once. Where only a bound is given, the exact number is not on record here.

viability, T/C and IC50 data for nine compounds are collected here from PubChem BioAssay AID2060612 (Molecular Pharmacology Branch, DTP, NCI, 2025).
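Note: spheroids exposed to compounds for 7 days before readout.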
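Throughout, for viability, T/C: 100% = DMSO vehicle wells with luminescence normalized to vehicle control.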

In general, viability, T/C refers to the result in the treated group divided by that in the control group, in per cent. Broadly, the pIC50 is the IC50 on a negative log10 scale, so that one unit is a factor of ten. Regarding `CC(=O)O[C@H]1C(=O)[C@@]2(C)[C@H]([C@H](OC(=O)c3ccccc3)[C@]3(O)C[C@H](OC(=O)[C@H](O)[C@@H](NC(=O)c4ccccc4)c4ccccc4)C(C)=C1C3(C)C)[C@]1(OC(C)=O)CO[C@@H]1C[C@@H]2O`, the viability, T/C was 39.2% and 16.7% (compound 0.0316 µM); 20.1% and 11.8% (compound 0.1 µM); 19.2% and 10.8% (compound 0.316 µM); 15.5% and 6.12% (compound 1 µM); 20% and 10.1% (compound 3.16 µM); 23.2% and 10.5% (compound 10 µM). Besides, the pIC50 (curve of compound) is greater than 7.50.
Turning to `CC1COCCN1c1cc(C2(S(C)(=N)=O)CC2)nc(-c2ccnc3[nH]ccc23)n1` (configuration not stated), the viability, T/C (compound 0.0316 µM) is 83.5% and 105%; the viability, T/C (compound 0.1 µM) is 88.9% and 90.1%; the viability, T/C (compound 0.316 µM) is 101% and 94.8%; the viability, T/C (compound 1 µM) was 88% and 99.1%; the viability, T/C (compound 3.16 µM) was 76.2% and 99.8%; the viability, T/C (compound 10 µM) is 63.5% and 25.8%. Besides, the pIC50 (curve of compound) is < 5.00 and 5.17.
One may read the IC50 as the concentration that gives 50% inhibition. With `CNC(=O)c1ccc(Nc2nc(OC3CCCC3)c3c(-c4ccc5nc(C)oc5c4)c[nH]c3n2)c(OC)c1`, the viability, T/C reads like this: (compound 0.1 µM) 54.9% [middle of 12 runs]; (compound 0.316 µM) 34.4% [middle of 12 runs]; (compound 1 µM) 22.6% [middle of 12 runs]; (compound 3.16 µM) 16% [middle of 12 runs]; (compound 10 µM) 15.4% [middle of 12 runs]. Also, the IC50 (compound alone, run of 08/01/2023) was 130 nM [middle of 12 runs].
Take `COc1ccc([C@@H](O)c2cc(-c3ncnc4cc(N5CCOCC5)ccc34)c(F)cc2Cl)nn1`: the viability, T/C (compound 0.0316 µM) is 106% and 119%; the viability, T/C (compound 0.1 µM) was 88.3% and 115%; the viability, T/C (compound 0.316 µM) was 98.2% and 98.9%; the viability, T/C (compound 1 µM) is 102% and 77.9%; the viability, T/C (compound 3.16 µM) was 77.2% and 117%; the viability, T/C (compound 10 µM) is 99.1% and 81.8%. Besides, under “curve of compound”, the pIC50 was less than 5.00.
`COc1cccc2c1C(=O)c1c(O)c3c(c(O)c1C2=O)CC(O)(C(=O)CO)CC3OC1CC(N)C(O)C(C)O1` (configuration not stated): the viability, T/C (compound 0.0316 µM) was 93.4% and 109%; the viability, T/C (compound 0.1 µM) is 85.3% and 45.3%; the viability, T/C (compound 0.316 µM) is 78.4% and 15.7%; the viability, T/C (compound 1 µM) was 16.1% and 0.8%; the viability, T/C (compound 3.16 µM) is 0.18% and 0.27%; the viability, T/C (compound 10 µM) is 0.14% and 0.26%. In addition, where the note is “curve of compound”, the pIC50 is 6.27 and 7.03.
`Nc1ccn(C2OC(CO)C(O)C2(F)F)c(=O)n1` (configuration not stated): the viability, T/C reads like this: (compound 0.0316 µM) 95.5% and 50.3%; (compound 0.1 µM) 57% and 17.7%; (compound 0.316 µM) 36.3% and 10.3%; (compound 1 µM) 35.6% and 9.39%; (compound 3.16 µM) 37.5% and 13%; (compound 10 µM) 39.9% and 13.2%. For the same compound, the pIC50 (curve of compound) was 6.82 and 7.50.
As to `O=C(c1cc(Cc2n[nH]c(=O)c3ccccc23)ccc1F)N1CCN(C(=O)C2CC2)CC1`, the viability, T/C by setting is: (compound 0.0316 µM) 128% and 92%; (compound 0.1 µM) 96.3% and 94.3%; (compound 0.316 µM) 113% and 94.3%; (compound 1 µM) 90.7% and 83.8%; (compound 3.16 µM) 95% and 117%; (compound 10 µM) 122% and 58.1%. Moreover, the pIC50 (curve of compound) is less than 5.00.
Regarding `O=c1[nH]cc(F)c(=O)[nH]1`, the viability, T/C (compound 0.0316 µM) was 91.2% and 106%; the viability, T/C (compound 0.1 µM) is 80.1% and 80.5%; the viability, T/C (compound 0.316 µM) was 80.7% and 124%; the viability, T/C (compound 1 µM) was 88.1% and 93.1%; the viability, T/C (compound 3.16 µM) is 134% and 80.6%; the viability, T/C (compound 10 µM) was 131% and 71.9%. For the same compound, the pIC50 (curve of compound) is less than 5.00.
In the case of `C#Cc1c(F)ccc2cc(O)cc(-c3ncc4c(N5CC6CCC(C5)N6)nc(OCC56CCCN5CC(F)C6)nc4c3F)c12` (configuration not stated) + CN1CCN(c2cc(C(=O)Nc3cc4cc(-c5cnn(C)c5)ccc4cn3)ccn2)CC1, the pIC50 was less than 5.00 (curve of first compound, second compound 0.0316 µM); less than 5.00 (curve of first compound, second compound 0.1 µM); greater than 7.50 (curve of first compound, second compound 0.316 µM); greater than 7.50 (curve of first compound, second compound 1 µM); greater than 7.50 (curve of first compound, second compound 3.16 µM); greater than 7.50 (curve of first compound, second compound 10 µM). For the same compound, the viability, T/C (second compound 0.0316 µM, first compound 0.0316 µM) is 104%; the viability, T/C (second compound 0.0316 µM, first compound 0.1 µM) is 75.3%; the viability, T/C (second compound 0.0316 µM, first compound 0.316 µM) is 106%; the viability, T/C (second compound 0.0316 µM, first compound 1 µM) was 113%; the viability, T/C (second compound 0.0316 µM, first compound 3.16 µM) was 93.2%; the viability, T/C (second compound 0.0316 µM, first compound 10 µM) was 101%. Further, the viability, T/C is 96.8% (second compound 0.1 µM, first compound 0.0316 µM); 76.8% (second compound 0.1 µM, first compound 0.1 µM); 102% (second compound 0.1 µM, first compound 0.316 µM); 86% (second compound 0.1 µM, first compound 1 µM); 101% (second compound 0.1 µM, first compound 3.16 µM); 107% (second compound 0.1 µM, first compound 10 µM). Besides, the viability, T/C (second compound 0.316 µM, first compound 0.0316 µM) is 25%; the viability, T/C (second compound 0.316 µM, first compound 0.1 µM) is 29.1%; the viability, T/C (second compound 0.316 µM, first compound 0.316 µM) is 26.9%; the viability, T/C (second compound 0.316 µM, first compound 1 µM) was 28.1%; the viability, T/C (second compound 0.316 µM, first compound 3.16 µM) is 21.8%; the viability, T/C (second compound 0.316 µM, first compound 10 µM) is 21.1%. The viability, T/C (second compound 1 µM, first compound 0.0316 µM) was 0.26%; the viability, T/C (second compound 1 µM, first compound 0.1 µM) is 0.25%; the viability, T/C (second compound 1 µM, first compound 0.316 µM) was 0.72%; the viability, T/C (second compound 1 µM, first compound 1 µM) is 0.3%; the viability, T/C (second compound 1 µM, first compound 3.16 µM) is 1.23%; the viability, T/C (second compound 1 µM, first compound 10 µM) is 0.75%. Further, the viability, T/C by setting is: (second compound 3.16 µM, first compound 0.0316 µM) 0.23%; (second compound 3.16 µM, first compound 0.1 µM) 3.14%; (second compound 3.16 µM, first compound 0.316 µM) 0.23%; (second compound 3.16 µM, first compound 1 µM) 0.18%; (second compound 3.16 µM, first compound 3.16 µM) 2.07%; (second compound 3.16 µM, first compound 10 µM) 0.17%. In addition, the viability, T/C reads like this: (second compound 10 µM, first compound 0.0316 µM) 0.21%; (second compound 10 µM, first compound 0.1 µM) 1.2%; (second compound 10 µM, first compound 0.316 µM) 2.26%; (second compound 10 µM, first compound 1 µM) 0.7%; (second compound 10 µM, first compound 3.16 µM) 3.78%; (second compound 10 µM, first compound 10 µM) 0.83%.
